The structures appear in SMILES notation.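 These data come from cells grown in 96-well plates and exposed to compound for 48 hours at five concentrations. The concentration for full growth arrest is given as TGI.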

What all share (assay): NCI anticancer screen, dose series, 48 h
The test system of assay [1] is DU-145 prostate.
Assay [2] deals with EKVX NSCLC.
Assay [3] deals with HCC-2998 colon.
The subject of assay [4] is HT29 colon.
The subject of assay [5] is IGROV1 ovarian.
Assay [6] concerns SF-295 CNS.
Assay [7] has as its system SN12C renal.
The subject of assay [8] is SNB-19 CNS.
Assay [9] relates to OVCAR-8 ovarian.
Assay [10] relates to HS 578T breast.

Take `COc1ccc(CC(CO)NC(=O)OCc2ccccc2)cc1Oc1ccc(CC(CO)NC(=O)OCc2ccccc2)cc1` (stereo not drawn): the TGI in assay [1] worked out at 46 µM; in [2], 19.1 µM; in [3] it was 93.6 µM; in [4], 23.6 µM; in [5], 29.3 µM; in assay [6], 24.6 µM. Besides, the figures for the TGI in assay [7] and in [8] were 39.3 µM and 51.8 µM, respectively.
In the case of `CC(C)(C)C1=Cc2cc3cc(C(C)(C)C)[nH]c(=O)c3cc2S(=O)(=O)N1`, the TGI in assay [2] was 44.1 µM; in [4], 41.4 µM; in [9], more than 100 µM; in assay [6], 94.4 µM; in assay [7], more than 100 µM; in [8], more than 100 µM.
For `CC(C)(C)N=c1n(C(C)(C)C)oc(=O)n1C(C)(C)C`, the TGI in [2], in [3], in assay [10], in [4], in [5] and in assay [9] was more than 100 µM throughout. The TGI in [6], in [7] and in assay [8] was more than 100 µM in each case.
For `CN(C)c1ccc(-c2c(C#N)c(S)n(NS(=O)(=O)c3ccccc3)c(=O)c2C#N)cc1`, the TGI in [1] was more than 100 µM; in assay [2], more than 100 µM; in [3], more than 100 µM; in assay [5], 73.5 µM; in [9] it was 56.8 µM; in [6] it was more than 100 µM. The TGI is 76.2 µM in [7] and more than 100 µM in assay [8].
With `C/C(=C\c1ccccc1)C(=O)CCN1CCOCC1`, the TGI was 42.7 µM in assay [2]; 34.4 µM in [3]; 35.7 µM in assay [4]; more than 61.9 µM in assay [5]; 41.4 µM in assay [9]; more than 100 µM in assay [6]. Moreover, the TGI in assay [7] is 32.8 µM; in assay [8], more than 62.1 µM.
Take `CN(C)C(CN)CC1=C(CC(CN)N(C)C)CCC1` (stereo not drawn): the TGI in [2], in [3], in assay [4], in [5], in assay [9] and in assay [6] was more than 100 µM throughout. The TGI in assay [7] and in assay [8] was more than 100 µM each time.
Consider `NC(=O)C(=O)N/N=C1/c2ccccc2CC1C1(O)C(=O)Nc2c(Cl)cc(Cl)cc21` (stereo not drawn), for which the TGI in [2], in [3], in assay [4], in assay [5], in [9] and in assay [6] was more than 100 µM throughout. For the same compound, the TGI in assay [7] and in assay [8] was more than 100 µM each time.
On to `C=C(C)CCC(=O)[C@](C)(O)[C@H]1[C@H](O)C[C@@]2(C)[C@@H]3CCc4c(cc(OC5OC(CO)C(O)C(O)C5O)c(O)c4C)C3(C)C(=O)C[C@]12C` (stereo partly drawn), for which the TGI in [1], in [2], in assay [3], in assay [4], in assay [5] and in assay [9] was more than 100 µM throughout. Moreover, the TGI in assay [6], in [7] and in assay [8] was more than 100 µM in each case.
For the compound `CCOC(=O)C1=C(C(C)=O)CSC(c2ccccc2)=N1`, the TGI in assay [2], in assay [3], in assay [4], in assay [5], in assay [9] and in assay [6] was more than 100 µM throughout. Also, the TGI in assay [7] and in [8] was more than 100 µM each time.
With `CCCCCCCCCC[C@H](O)[C@H]1CC[C@H]([C@H]2CC[C@H]([C@H](O)CC[C@H](O)CCCCCCC[C@@H](O)CC3=C[C@H](C)OC3=O)O2)O1`, the TGI in assay [2], in [3], in [5], in [9], in assay [6] and in assay [7] was more than 100 µM in each case. Moreover, in assay [8], the TGI was more than 100 µM.
As to `C/C(=N/NC(N)=S)c1ccc2ccccc2c1`, the TGI in [2] is 37.3 µM; in assay [3], 34.9 µM; in [4], 72.4 µM; in assay [5], more than 100 µM; in assay [9], more than 100 µM; in [6], more than 100 µM. For the same compound, the TGI in [7] and in assay [8] was more than 100 µM in each case.
As for `CCOP(=O)(OCC)C1C(CO)OC(n2ccc(=O)[nH]c2=O)C1O` (stereo not drawn), the TGI in [2], in [3], in assay [10], in assay [4], in [5] and in [9] was more than 100 µM each time. Besides, the TGI in assay [6], in assay [7] and in assay [8] was more than 100 µM each time.
With `CCC1=CCC23C(=O)C=CC(=O)C2(C1)C(=O)c1cccc(OC)c1C3=O` (stereo not drawn), the TGI in [1] was found to be 32.2 µM; in assay [2] it was 32.9 µM; in assay [10] it was 57.3 µM; in assay [4] it was 55.8 µM; in [5] it was 26.9 µM; in assay [9], 29.9 µM. Also, the TGI in assay [6] was more than 100 µM; in assay [7], 35.2 µM; in [8], 53.7 µM.
`COCOc1ccc(OC)cc1`: the TGI in assay [2], in [3], in assay [4], in assay [5], in assay [9] and in [6] was more than 100 µM throughout. For the same compound, the TGI in [7] and in assay [8] was more than 100 µM in each case.
Take `N#Cc1c(-c2ccccc2)/c(=C\Nc2ccc(Cl)cc2)c(=O)n2c1nc1ccccc12`: the TGI in [3], in assay [5], in assay [9], in assay [6], in assay [7] and in [8] was more than 100 µM in each case.
`O=C1CCSSCCC(=O)NCCN1`: the TGI in [1], in [2], in assay [10], in assay [4], in assay [5] and in assay [9] was more than 100 µM each time. Besides, the TGI in [6], in [7] and in assay [8] was more than 100 µM throughout.

Values taken from PubChem BioAssay (NCI).
